# Assay results from patent publication US9101564B2, “Heparanase activity inhibitor, wrinkle improving agent containing same, and pharmaceutical composition” (Shiseido Company, Ltd., priority 2009, dated 2015).
# Target: T1, heparanase (Homo sapiens, UniProt Q9Y251)
# T1 construct: the supernatant was recovered as cell extract; endogenous in cells; host or cells: A431 (human epithelial carcinoma cells), Triton X-100 lysate
# T1 sequence (Q9Y251 158-543 limits assumed): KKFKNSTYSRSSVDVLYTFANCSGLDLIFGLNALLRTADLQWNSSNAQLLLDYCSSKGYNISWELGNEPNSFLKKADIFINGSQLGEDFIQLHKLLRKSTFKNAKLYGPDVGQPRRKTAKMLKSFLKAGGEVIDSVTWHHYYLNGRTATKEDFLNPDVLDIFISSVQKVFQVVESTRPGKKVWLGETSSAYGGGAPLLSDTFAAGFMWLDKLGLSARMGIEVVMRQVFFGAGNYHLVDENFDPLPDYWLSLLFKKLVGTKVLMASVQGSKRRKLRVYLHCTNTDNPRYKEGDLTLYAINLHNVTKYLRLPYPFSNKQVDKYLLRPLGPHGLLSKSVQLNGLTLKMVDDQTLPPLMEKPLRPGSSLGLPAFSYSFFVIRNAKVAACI
# T1 sequence (Q9Y251 36-109 limits assumed): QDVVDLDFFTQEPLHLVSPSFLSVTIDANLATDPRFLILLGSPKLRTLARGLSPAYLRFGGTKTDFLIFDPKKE
# Assay: Heparanase activity inhibition rate, A431 cell extract on biotinylated heparan sulfate-immobilized plate
# Format: biochemical
# Details: A431 cell extract 500 μg/mL, 37° C., 2 hours, DMSO 5%
# Description: A431 cells (human epithelial carcinoma cells) were cultured in 10% serum-containing DMEM (Dulbecco's modified Eagle medium). The cultured cells were solubilized in lysis buffer (50 mM Tris, 0.5% TritonX-100, 0.15 M sodium chloride, pH 4.5) and collected with a scraper, and then pipetted and allowed to stand on ice for 30 minutes. This was followed by centrifugation at 10,000 rpm for 10 minutes to remove the insoluble portion, and the supernatant was recovered as cell extract. The amount of protein in the cell extract was measured with a BCA protein assay kit (BCA Protein Assay Kit, PIERCE, Calif. 46141).
# The A431 cell extract was then diluted to 500 μg/mL with assay buffer (50 mM HEPES, 50 mM sodium acetate, 150 mM sodium chloride, 9 mM calcium chloride, 0.1% BSA). Next, the test compound was dissolved in DMSO and added to the diluted cell extract in proportions of 0.0005 mass %, 0.005 mass % and 0.05 mass %, and these were mixed to prepare sample solutions (DMSO final concentration: 5%). A control solution was prepared by mixing DMSO with the diluted cell extract to a final concentration of 5%. The sample solution and control solution were each seeded in a biotinylated heparan sulfate-immobilized plate at 100 μL/well. […] After further rinsing 3 times with PBS-T, TMB reagent (BIO-RAD, 172-1066) was added at 100 μL/well and reacted therewith, the reaction was terminated with 1N sulfuric acid, and the absorbance at 475 nm (OD475) was measured.
# Also, DMSO was added to a serial diluent prepared with the aforementioned A431 cell extract assay buffer (cell extract concentrations: 500 μg/mL, 50 μg/mL, 5 μg/mL, 0.5 μg/mL), to a final concentration of 5% without addition of the test compound, to obtain a mixture (solution for calibration curve). The solution for the calibration curve was subjected to treatment by the same procedure described above, from seeding of the biotinylated heparan sulfate-immobilized plate, and the OD475 was measured. […]
smiles,measurement,setting,value
"CC(C)Cc1ccc(O)cc1O [4-Isobutylresorcinol, 4-isobutylresorcinol]",Heparanase activity inhibition rate,added concentration 0.0005 mass %,37.64%
same,Heparanase activity inhibition rate,added concentration 0.005 mass %,75.98%
same,Heparanase activity inhibition rate,added concentration 0.05 mass %,94.74%
